Laboratory results reported in paper PMC7534389, “Thiazolidin-2-cyanamides derivatives as novel potent Escherichia coli β-glucuronidase inhibitors and their structure–inhibitory activity relationships” (Journal of Enzyme Inhibition and Medicinal Chemistry, 2020).
Several values for one entry are separate records, joined by “and”; a condition that tells them apart may be missing. Equal values may be shown once. Read-outs that look alike come from different tables or passages of the source.

Key:
[1] = molecular target: T1, Escherichia coli β-glucuronidase (EcGUS) (Escherichia coli, UniProt P05804); assay: EcGUS-mediated PNPG hydrolysis inhibition assay (screening at 10 µM and IC50); assay type: biochemical
T1 construct: inferred from the pET28a vector and Ni-NTA purification; made in house; host or cells: E. coli BL21 (DE3)
Procedure: EcGUS was prepared according to our previous report. The recombinant strain were incubated in 200 mL of LB broth (Tryptone, 10 g/L; yeast extract, 5 g/L; NaCl, 10 g/L; pH 7.0) containing 1% kanamycin at 220 rpm and 37 °C until OD600 reached 0.5–0.6. Afterward, IPTG (final concentration, 0.5 mM) was added and the culture was incubated at 220 rpm and 16 °C for 16 h to induce the expression of β-glucuronidase. The cells were collected by centrifugation and suspended in PBS buffer (pH 7.4), and then applied to extract the enzyme by sonication. Finally, pure EcGUS was obtained from the cell-free extracts through a Ni-NTA column (EMD Millipore Corp., MA, USA). Protein concentration was determined using the BCA Protein Assay Kit (Beyotime, Shanghai, China) according to the manufacturer’s instruction, and its purity was determined by SDS-PAGE.
Thirteen thiazolidin-2-cyanamide derivatives were subjected to screening for potent EcGUS inhibitor. The inhibitory effects of these compounds were determined by measuring the PNP formation generated from PNPG by EcGUS. Briefly, the assays were conducted in 96-well flat-bottomed tissue culture plates (Nunc, Denmark) with a total volume of 100 µL which consisted of 10 µL EcGUS (final concentration, 2 µg/mL), 70 µL PBS buffer (pH 7.4), 10 µL test compound or DSL (final concentration, 10 µM) and 10 µL PNPG (final concentration, 250 µM). DSL was used as a positive control, and 1%DMSO was used as blank control. All reactions were performed in triplicate and the produced PNP was monitored by measuring absorbance at 405 nm in a plate reader (SpectraMax Plus384, Molecular Devices, CA, USA) after incubating at 37 °C for 30 min. The PNP concentration was determined from a standard curve (0, 10, 20, 40, 60, 80, 100, 120 µM PNP) in PBS buffer (pH 7.4). Relative activity was defined as a percent of PNP formation in the presence of test compound within 30 min compared with the blank control group.
IC50 values of the 13 thiazolidin-2-cyanamide derivatives against EcGUS were investigated using similar assays as described in Section 2.4. The reaction conditions are as follows: 10 µL pure enzyme (final concentration, 2 µg/mL), 70 µL PBS buffer (pH 7.4), 10 µL test compound or DSL (final concentration, 0.001–5000 µM) and 10 µL PNPG (final concentration, 250 µM) incubating at 37 °C for 30 min. The IC50 values were calculated by plotting the concentration–response curve using GraphPad Prism 6.0 (GraphPad Software, La Jolla, CA).
(§1) All experiments were carried out in triplicate and repeated at least two times. All data were expressed as mean ± standard deviation (SD). The IC50 values were defined as the concentration of inhibitor that is required for 50% inhibition and evaluated by nonlinear regression using GraphPad Prism 6.0 software (GraphPad Software, La Jolla, CA).

[2] = molecular target: T1, Escherichia coli β-glucuronidase (EcGUS); assay: Inhibition kinetic analysis (Lineweaver–Burk plots, Ki) against EcGUS; assay type: biochemical; conditions: for Ki: PNPG 0.2-1.0 mM, nonlinear regression; for Inhibition type: from intersection point in Lineweaver–Burk plots
Procedure: To further characterise the inhibition behaviour of discovered inhibitors, multiple concentrations of compounds (0.5–12 µM) or DSL (50–100 µM) and PNPG (0.2, 0.3, 0.5, and 1.0 mM) were applied to determine the corresponding reaction rates. The inhibition type was evaluated through determining the intersection point in Lineweaver–Burk plots, and the Ki values were calculated by nonlinear regression of different inhibition types using the GraphPad Prism 6.0 (GraphPad Software, La Jolla, CA).
as §1

EcGUS = conditions: cited from earlier work
[3] = 10 µM compound, PNPG 250 µM, EcGUS 2 µg/mL, PBS pH 7.4, 37 °C, 30 min, read-out: Inhibition rate at 10 μM
[4] = PNPG 250 µM, EcGUS 2 µg/mL, PBS pH 7.4, 37 °C, 30 min
[5] = pH 7.4, read-out: Inhibition rate at 10 μM

T1 sequence (P05804 whole entry): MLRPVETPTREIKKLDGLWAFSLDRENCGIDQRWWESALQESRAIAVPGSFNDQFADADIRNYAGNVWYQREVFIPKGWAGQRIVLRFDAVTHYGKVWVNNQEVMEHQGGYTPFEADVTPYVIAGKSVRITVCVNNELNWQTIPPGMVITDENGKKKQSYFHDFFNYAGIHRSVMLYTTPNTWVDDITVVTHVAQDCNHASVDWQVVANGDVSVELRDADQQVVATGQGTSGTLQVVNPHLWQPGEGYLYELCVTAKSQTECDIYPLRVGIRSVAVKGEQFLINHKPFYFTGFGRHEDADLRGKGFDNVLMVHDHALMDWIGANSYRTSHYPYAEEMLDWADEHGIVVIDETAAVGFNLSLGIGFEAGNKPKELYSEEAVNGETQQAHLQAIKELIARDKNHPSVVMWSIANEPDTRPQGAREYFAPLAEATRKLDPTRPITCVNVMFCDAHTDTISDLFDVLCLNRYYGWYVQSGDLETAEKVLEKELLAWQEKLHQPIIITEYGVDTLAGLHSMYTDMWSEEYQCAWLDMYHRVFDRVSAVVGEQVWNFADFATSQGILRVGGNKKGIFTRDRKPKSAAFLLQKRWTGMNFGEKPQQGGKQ

SMILES | inhibition at 10 µM [1, 3] [%] | IC50 [1, 4] [µM] | melting point [°C] | Ki [2] | Inhibition type [2] | inhibition at 10 µM [1, 5] [%] | Inhibition type against EcGUS (EcGUS)
N#C/N=C1\SCCN1C(=O)c1ccc(-c2ccccc2Cl)o1 [Compound 1] | 77.2 ± 0.6 | 5.7 ± 0.6 | 101 to 102 | < 3.5 µM and 3.5 µM | competitive EcGUS inhibitors | – | –
N#C/N=C1\SCCN1C(=O)c1ccc(-c2cccc(Cl)c2)o1 [Compound 2] | 95.2 ± 0.3 | 1.2 ± 0.2 | 166 to 167 | < 3.5 µM and 0.7 µM | competitive EcGUS inhibitors | – | –
N#C/N=C1\SCCN1C(=O)c1ccc(-c2ccc(Cl)cc2)o1 [Compound 3] | 80.2 ± 1.8 | 4.7 ± 0.6 | 149 to 150 | < 3.5 µM and 2 µM | competitive EcGUS inhibitors | – | –
N#C/N=C1\SCCN1C(=O)c1ccc(-c2ccccc2F)o1 [Compound 4] | 61.6 ± 0.6 | 11.9 ± 1.5 | 137 to 138 | – | – | – | –
N#C/N=C1\SCCN1C(=O)c1ccc(-c2ccc(F)cc2)o1 [Compound 5] | 66.5 ± 1.2 | 7.3 ± 0.7 | 129 to 130 | – | – | – | –
N#C/N=C1\SCCN1C(=O)c1ccc(-c2ccc(F)cc2F)o1 [Compound 6] | 43.9 ± 0.7 | 23.1 ± 1.5 | 140 to 141 | – | – | – | –
N#C/N=C1\SCCN1C(=O)c1ccc(-c2c(F)cccc2F)o1 [Compound 7] | 64.1 ± 1.2 | 9.3 ± 1.1 | 136 to 137 | – | – | – | –
N#C/N=C1\SCCN1C(=O)c1ccc(-c2ccccc2[N+](=O)[O-])o1 [Compound 8] | – | < 10 | 135 to 136 | – | – | 31.4 ± 1.8 | –
N#C/N=C1\SCCN1C(=O)c1ccc(-c2ccc([N+](=O)[O-])cc2)o1 [Compound 9] | 40.3 ± 3.2 | 22.2 ± 2.5 | > 290 | – | – | – | –
N#C/N=C1\SCCN1C(=O)c1ccc(-c2ccc(Br)cc2)o1 [Compound 10] | 68.7 ± 1.8 | 10.8 ± 0.2 | 169 to 170 | – | – | – | –
Cc1ccc(-c2ccc(C(=O)N3CCS/C3=N\C#N)o2)cc1 [Compound 11] | 33.5 ± 2.5 | 22.3 ± 2.6 | 151 to 152 | – | – | – | –
COc1ccc(-c2ccc(C(=O)N3CCS/C3=N\C#N)o2)cc1 [Compound 12] | 49.6 ± 0.6 | 18.5 ± 2.1 | 151 to 152 | – | – | – | –
N#C/N=C1\SCCN1C(=O)c1ccc(-c2ccccc2)o1 [Compound 13] | 61.8 ± 1.3 | 10.7 ± 0.5 | 143 to 144 | – | – | – | –
O=C(O)[C@@H](O)[C@H]1OC(=O)[C@H](O)[C@H]1O [D-Saccharic acid 1,4-lactone, D-saccharic acid-1,4-lactone, reference compound] | – | 67.3 ± 0.6 | – | 30.9 ± 2.2 µM | mixed inhibitors | 11.6 ± 0.6 | –
O=c1cc(-c2ccc(O)cc2)oc2cc(O)c(O)c(O)c12 [Scutellarein] | – | – | – | – | – | – | potent competitive inhibitors
Clc1ccc2c(c1)C(N1CCNCC1)=Nc1ccccc1O2 [amoxapine] | – | – | – | – | – | – | uncompetitive inhibition
CCOC(=O)/C=C/c1ccc(O)c(O)c1 [caffeic acid ethyl ester] | – | – | – | – | – | – | potent competitive inhibitors
CC(C)=CCc1c(-c2ccc(O)cc2O)oc2c([C@H]3C=C(C)C[C@@H](c4ccc(O)cc4O)[C@@H]3C(=O)c3ccc(O)cc3O)c(O)cc(O)c2c1=O [kuwanon G] | – | – | – | – | – | – | mixed-type inhibition
CC(C)=CC[C@]12Oc3cc(O)c([C@H]4C=C(C)C[C@H](c5ccc(O)cc5O)[C@H]4C(=O)c4ccc(O)cc4O)c(O)c3C(=O)[C@@]1(O)Oc1cc(O)ccc12 [sanggenon C] | – | – | – | – | – | – | mixed-type inhibition
